The text below walks through data of patent publication US20240207274A1, “Larotrectinib and moderate CYP3A4 inducer” (Bayer Consumer Care AG, priority 2022, published 2024).

A short description of data set [1]: Observed plasma concentrations of larotrectinib, single oral dose 100 mg alone and with itraconazole or rifampicin. The class given is in vivo, human. The following applies: for Ratio AUC / Ratio Cmax: Observed, single oral dose 100 mg larotrectinib.
The target of data set [2] is CYP3A4 (Homo sapiens, UniProt P08684). The note with it: following oral administration; cited from earlier work.
Sequence of CYP3A4 (Homo sapiens, UniProt P08684) (P08684 whole entry): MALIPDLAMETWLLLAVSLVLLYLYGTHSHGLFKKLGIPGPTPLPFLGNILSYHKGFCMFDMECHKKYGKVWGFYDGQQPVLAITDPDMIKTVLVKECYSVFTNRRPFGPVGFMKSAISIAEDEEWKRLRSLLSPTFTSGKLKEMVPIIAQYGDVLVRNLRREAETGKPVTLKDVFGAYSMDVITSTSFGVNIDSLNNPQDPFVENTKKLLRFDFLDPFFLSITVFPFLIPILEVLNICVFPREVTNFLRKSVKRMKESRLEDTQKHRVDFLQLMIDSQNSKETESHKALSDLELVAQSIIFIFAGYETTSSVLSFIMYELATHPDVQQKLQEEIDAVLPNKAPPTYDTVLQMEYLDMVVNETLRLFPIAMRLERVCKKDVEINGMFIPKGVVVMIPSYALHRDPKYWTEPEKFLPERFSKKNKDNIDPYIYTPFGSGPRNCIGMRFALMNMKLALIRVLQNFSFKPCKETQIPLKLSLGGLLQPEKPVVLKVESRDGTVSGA
Data set [3] relates to CYP Enzymes. The following applies: moderate inducer of the CYP named in the cell; FDA list filtered for moderate CYP3A4 inducers; cenobamate classification based on 200 mg daily dose; cited from earlier work.
In data set [4] the test system is CYP3A4. The note with it: classification of the drugs included in the PBPK study; cited from earlier work.
Data set [5] deals with CYP3A4. The note with it: cited from earlier work.
Data set [6] deals with Transporter Systems. The following applies: substrate of the transporter named in the cell; FDA list; cited from earlier work.
[7] abbreviates: plus itraconazole (200 mg QD, 5th day of 7) / control, healthy subjects.
The mark [8] stands for this setting: plus rifampicin (600 mg QD, 10th day of 11) / control.
The mark [9] stands for this setting: coadministration of larotrectinib with rifampicin 600 mg QD.

Molecules are shown by their SMILES. Entries after “also recorded” stand apart in the source; their conditions may differ. Read-outs that look alike come from different tables or passages of the source.

With `O=C(Nc1cnn2ccc(N3CCC[C@@H]3c3cc(F)ccc3F)nc12)N1CC[C@H](O)C1` [larotrectinib], in data set [1] (setting [7]), the “Ratio AUC” value is 4.31 and the “Ratio Cmax” value turned out to be 2.81. Further, in data set [1] (setting [8]), the “Ratio AUC” value is given as 0.19 and the “Ratio Cmax” value is 0.29. In addition, in data set [1] (setting [9]), the “observed reduction in exposure, AUC” value is on record as 81% and the “observed reduction in exposure, Cmax” value worked out at 71%. Further, the metabolism entry in data set [2] is “metabolized by CYP3A4”.

As to `NC(=O)O[C@@H](Cn1ncnn1)c1ccccc1Cl` [cenobamate], the “CYP Mod IND” value in data set [3] is given as “CYP3A4”.

Take `O=C1Nc2ccc(Cl)cc2[C@@](C#CC2CC2)(C(F)(F)F)O1` [efavirenz]: the “CYP3A4 Effect” value in data set [4] is given as “Moderate CYP3A4 induced”.

As to `OC(Cn1cncn1)(Cn1cncn1)c1ccc(F)cc1F` [Fluconazole], the “CYP3A4 Effect” value in data set [4] is on record as “Moderate CYP3A4 inhibitor”.

Consider `CCC1(c2ccccc2)C(=O)NC(=O)NC1=O` [phenobarbital], for which the “classification as CYP3A4 inducer” value is recorded as “moderate inducer” in data set [5] (listed by FDA) and “strong inducer” in data set [5] (listed by a leading clinical support website (UpToDate)).

Turning to `CCC(C)n1ncn(-c2ccc(N3CCN(c4ccc(OCC5COC(Cn6cncn6)(c6ccc(Cl)cc6Cl)O5)cc4)CC3)cc2)c1=O` (centres unmarked) [Itraconazole], the “CYP3A4 Effect” value in data set [4] is “Strong CYP3A4 inhibitor”.

`COc1ccccc1Oc1c(NS(=O)(=O)c2ccc(C(C)(C)C)cc2)nc(-c2ncccn2)nc1OCCO` [bosentan]: the “TRNSP SUB” value in data set [6] is “OATP1B1;; also recorded: OATP1B3”.
